Measured values published in patent US20100209486A1, “Method of enhancing CoenzymeQ10 levels in mammals” (priority 2009, published 2010).
Entries after “also recorded” stand apart in the source; their conditions may differ.

Experiment: HPLC and MS determination of CoQ9 and CoQ10 in heart samples of supplemented guinea pigs
Assay type: in vivo, guinea pig
Conditions: 5 mg/kg/day CoQ9 oral for 4 weeks, heart tissue
Protocol: FIG. 3. HPLC chromatograms of a) Blank (mobile phase) b) CoQ9 standard solution c) CoQ10 standard solution and d) CoQ9 heart sample. The standards and sample solution were analyzed using an Agilent 1100 HPLC. The mobile phase was methanol-2-propanol-formic acid (45:55:0.05, v/v/v) containing methylamine at the concentration of 5 mmol/L. At a flow rate of 0.2 ml/min, 5 μl injections of the samples were done using the autosampler. The CoQ9 peak eluted at 2.39 minutes and the CoQ10 eluted at 2.86 minutes. However, the CoQ9 heart sample peak eluted at […], which is the same as CoQ10, thus indicating the presence of CoQ10 rather than CoQ9 in the sample.
FIG. 4. Mass Spectrometry (MS). (a) CoQ10 standard, b) CoQ9 standard, c) CoQ10 heart sample) Methylamine was used in the mobile phase to obtain the methyl ammonium adduct molecules of CoQ9 and CoQ10. The sensitivity of the adduct ions [M+CH3NH3]^+ was much higher than that of the protonated ions [M+H]^+ [7]. The MS spectra of both [M+CH3NH3][…] at m/z 826.5 for CoQ9 and m/z 894.6 for CoQ10 were observed. However, the CoQ9 heart sample indicated a mass peak at m/z 894.6, which matches the peak for CoQ10 and not CoQ9. Therefore, there was evidence of CoQ10 in the CoQ9 heart sample from the mass spec. data. This confirmed the hypothesis of bio-conversion of CoQ9 to CoQ10.
However, the retention time of CoQ9 heart sample indicated a retention time of 2.86 minutes and not 2.39 minutes (FIG. 3d). The retention time of the CoQ9 heart sample matched with that of CoQ10 rather than CoQ9. The qualitative analysis was done by identifying the compounds by their retention times. It was obvious that at this point CoQ9 was probably bio-converted to CoQ10. […]
Preparation of CoQ9 and CoQ10 heart samples: Animal preparation, drug pretreatment and isolated working heart preparation were done as described in example 1. […] The samples were analyzed immediately after preparation, and the remainder of the standard solutions was stored at 5° C. for future analysis. […]

COC1=C(OC)C(=O)C(C/C=C(\C)CC/C=C(\C)CC/C=C(\C)CC/C=C(\C)CC/C=C(\C)CC/C=C(\C)CC/C=C(\C)CC/C=C(\C)CCC=C(C)C)=C(C)C1=O [CoQ9, Coenzyme Q9]
CoQ9 detected in the heart after CoQ9 supplementation: no CoQ9 could be detected in the heart; also recorded: very small or no amount of CoQ9 | bioconversion of CoQ9 into CoQ10: a substantial portion of CoQ9 had been bio-converted into CoQ10; also recorded: complete bioconversion of CoQ9 into CoQ10 | CoQ10 content in the heart after CoQ9 supplementation (control chromatogram subtracted): appreciable amount of CoQ10 in the heart tissue; also recorded: significantly high enrichment in the CoQ10 content
